Laboratory results published in patent US10835542B2, “9-aminomethyl minocycline compounds and use thereof in treating community-acquired bacterial pneumonia (CABP)” (Paratek Pharmaceuticals, Inc., priority 2016, dated 2020).
Read-outs that look alike come from different tables or passages of the source.

Tests used:
[1] = Intra-pulmonary (ELF, AC/AM by BAL) and plasma PK after multiple iv doses in healthy adult subjects; assay type: in vivo, human; settings: for Kp at 0.5 h / Kp at 1 h / Kp at 2 h / Kp at 4 h / Kp at 8 h / Kp at 12 h / Kp at 24 h / AUC / Kp: intravenous, 100 mg; for concentration at 0.5 h: 0.5 h after fifth 100 mg iv dose; for concentration at 1 h: 1 h after fifth 100 mg iv dose; for concentration at 2 h: 2 h after fifth 100 mg iv dose; for concentration at 4 h: 4 h after fifth 100 mg iv dose; for concentration at 8 h: 8 h after fifth 100 mg iv dose; for concentration at 12 h: 12 h after fifth 100 mg iv dose; for concentration at 24 h: 24 h after fifth 100 mg iv dose
Experimental: Concomitant blood samples were taken to compare tissue with serum antibiotic concentrations. […]
One standard bronchoscopy was performed for each subject. […] A blood sample was taken at the time of bronschoscopy for plasma urea measurement.
During the bronchoscopy 4 aliquots of 50 mL each of sterile saline solution were instilled into the right lobe of the lungs, immediately aspirated, and placed on ice. The first bronchioalveolar lavage aliquot instilled (BALX) fraction was prepared and analyzed separately from subsequent instillations. The aspirate from the second through the fourth instillation, once pooled, represented the BAL fraction. An aliquot of BAL was removed and used to determine the cell count and differential cell composition including pulmonary macrophages. The remaining supernatant was centrifuged and the supernatant and cell pellet were immediately frozen pending analysis. An aliquot of the BAL supernatant was frozen separately for urea assay. The amount of test article detected in the cell pellet was normalized by the corresponding fraction of macrophages. Fraction BALX was analyzed in a similar manner, except the cell pellet was not assessed or assayed. A blood sample to determine urea concentration was obtained at the time of the second instillation (±3 minutes). The concentration of test article detected in the BALX and BAL fluid was normalized by the dilution factor with respect to urea levels detected in the BALX and BAL fractions respectively.
All completed subjects with evaluable plasma PK parameter data were included in the PK data analysis.
All the biofluid concentrations were expressed in ng/mL. All concentrations below the limit of quantification (BLQ) or missing data were labeled as such in the concentration data listings. Concentrations BLQ were treated as zero in summary statistics for concentration data only. They were not considered for calculation of PK Parameters (with the exception of the predose samples). PK parameters were determined using non-compartmental method(s) using WinNonlin Pro.
These were obtained from the above plasma PK parameter calculations (AUC0-24 and AUC0-12). The tigecycline concentration information was serve as an internal validation for assay sensitivity purposes.
The volume of the lung ELF within the BAL fluid was estimated by (ureaBAL/ureaplasma), where ureaBAL and ureaplasma represented the concentrations of urea in the BAL fluid and plasma, respectively.
AUCELF and AUCAC were determined from pooled pulmonary concentration data and were summarized by treatment group. […] For the tigecycline cohort there were 5 ELF and AC concentrations for each of the 4 timepoints over the 12 hour dosing interval.
For PK blood collection and processing, all blood samples were taken by either direct venipuncture or an indwelling cannula inserted in a forearm vein (on the arm contralateral to the infusion site) at the timepoints specified in the Study Flowchart. The PK blood sample collected at the bronchoscopy scheduled time was obtained at the time of the second BAL instillation (±3 minutes) from the arm contralateral to the infusion site.
Blood samples were collected into labeled 4 mL tubes containing sodium heparin. Immediately after the sample was collected, the tube was gently inverted 5 to 8 times to thoroughly mix the anticoagulant and then placed upright in a cryoblock or test tube rack surrounded by ice until centrifugation. Samples were centrifuged at 1500×g (gravity) for 10 minutes at approximately 4° C. within 30 minutes of collection. The resultant plasma was divided into 2 equal aliquots, placed in individual cryovials, and immediately frozen at −70° C. or colder within 1 hour of collection. The tubes were kept frozen at −70° C. or colder pending shipment to the bioanalytical laboratory.

Streptococcus pneumoniae [2] = assay: Mouse model of lower respiratory tract infection; assay type: in vivo; settings: infection caused by Streptococcus pneumoniae
Haemophilus influenzae = assay: Mouse model of lower respiratory tract infection; assay type: in vivo; settings: infection caused by Haemophilus influenzae
[3] = Food effect on plasma PK of a single 300 mg oral dose, healthy volunteers (4-period crossover); assay type: in vivo, human
Streptococcus pneumoniae [4] = assay type: in vivo, human; settings: PTE, microITT
Legionella pneumophila = assay type: in vivo, human; settings: PTE, microITT; baseline pathogen Legionella pneumophila (culture, serology and/or urinary antigen); N1 = 37 (Compound 1), 37 (Moxifloxacin)
Mycoplasma pneumoniae = assay: Clinical success at PTE by baseline pathogen, microITT; assay type: in vivo, human; settings: N1 = 70 (Compound 1), 57 (Moxifloxacin)
[5] = Absolute bioavailability of the tablet formulation (tosylate salt); settings: phase 3 tablet formulation (tosylate salt), fasting conditions; listed as omadacycline
[6] = Phase 1 multiple oral dose (300, 450, 600 mg) study: plasma PK, healthy adult subjects; settings: for exposure (dose-normalized AUC0-24) as % of that predicted if perfectly dose-proportional: 300 mg to 600 mg; for AUC(0-t): human, in vivo, po
[7] = human, ELF (epithelial lung fluid from BAL) relative to plasma, read-out: ELF to Plasma (Mean, SD)
[8] = human, alveolar macrophages (AM), read-out: AM concentration (mean ± SD)
[9] = human, epithelial lining fluid (ELF), read-out: ELF concentration (mean ± SD)
[10] = human, read-out: AM to Plasma (Mean, SD)
[11] = human, plasma, read-out: Plasma concentration at time of BAL (mean ± SD)

CN(C)c1cc(CNCC(C)(C)C)c(O)c2c1C[C@H]1C[C@H]3[C@H](N(C)C)C(O)=C(C(N)=O)C(=O)[C@@]3(O)C(O)=C1C2=O [Compound 1, 9-[(2,2-dimethyl-propylamino)-methyl]-minocycline]
mean concentration in ELF higher than that in plasma ([1]; FIG. 1, concentration vs. time profile): at least 40% | maximum concentration (plasma), mean ± SD ([1]; after the fifth 100 mg iv dose): 2.26 ± 0.76 µg/mL | Kp at 0.5 h [1, 7]: 0.95 ± 0.56 | Kp at 1 h [1, 7]: 2.72 ± 1.26 | Kp at 2 h [1, 7]: 1.5 ± 0.61 | Kp at 4 h [1, 7]: 1.79 ± 0.49 | Kp at 8 h [1, 7]: 1.07 ± 0.45 | Kp at 12 h [1, 7]: 1.44 ± 0.57 | Kp at 24 h [1, 7]: 1.65 ± 0.86 | AUC ([1]; human, ELF (epithelial lung fluid from BAL), AUC0-24 based on mean concentration at each BAL sampling time, read-out: ELF AUCmean): 17200 ng·h/mL | AUC ([1]; human, ELF (epithelial lung fluid from BAL), AUC0-24 based on median concentration at each BAL sampling time, read-out: ELF AUCmedian): 16700 ng·h/mL | Kp ([1]; human, alveolar cells (AC) / plasma, based on AUC0-24 of mean concentrations, read-out: Ratio AC:Plasma (AUCmean)): 25.8 | Kp ([1]; human, alveolar cells (AC) / plasma, based on AUC0-24 of median concentrations, read-out: Ratio AC:Plasma (AUCmedian)): 24.8 | AUC ([1]; human, alveolar cells (AC, BAL cell pellet), AUC0-24 based on mean concentration at each BAL sampling time, read-out: AC AUCmean): 302000 ng·h/mL | AUC ([1]; human, alveolar cells (AC, BAL cell pellet), AUC0-24 based on median concentration at each BAL sampling time, read-out: AC AUCmedian): 292000 ng·h/mL | Kp ([1]; human, alveolar cells (AC, mostly AM) / plasma, FIG. 1, concentration vs. time profile, read-out: mean concentration in AC (mostly AM) higher than that in plasma): ~25 | concentration at 0.5 h [1, 8]: 14300 ± 9300 ng/mL | concentration at 1 h [1, 8]: 12800 ± 8480 ng/mL | concentration at 2 h [1, 8]: 10800 ± 7590 ng/mL | concentration at 4 h [1, 8]: 18000 ± 7170 ng/mL | concentration at 8 h [1, 8]: 12300 ± 4700 ng/mL | concentration at 12 h [1, 8]: 12300 ± 4610 ng/mL | concentration at 24 h [1, 8]: 10400 ± 4040 ng/mL | Kp ([1]; human, epithelial lining fluid (ELF) / plasma, penetration ratio based on AUC0-24 of mean concentrations, read-out: Ratio ELF:Plasma (AUCmean)): 1.47 | Kp ([1]; human, epithelial lining fluid (ELF) / plasma, penetration ratio based on AUC0-24 of median concentrations, read-out: Ratio ELF:Plasma (AUCmedian)): 1.42 | concentration at 0.5 h [1, 9]: 1730 ± 1010 ng/mL | concentration at 1 h [1, 9]: 2250 ± 720 ng/mL | concentration at 2 h [1, 9]: 1510 ± 940 ng/mL | concentration at 4 h [1, 9]: 950 ± 330 ng/mL | concentration at 8 h [1, 9]: 580 ± 190 ng/mL | concentration at 12 h [1, 9]: 610 ± 290 ng/mL | concentration at 24 h [1, 9]: 410 ± 130 ng/mL | Kp at 0.5 h [1, 10]: 8.12 ± 5.95 | Kp at 1 h [1, 10]: 13.8 ± 7.38 | Kp at 2 h [1, 10]: 12.3 ± 6.57 | Kp at 4 h [1, 10]: 34.7 ± 15.1 | Kp at 8 h [1, 10]: 23.1 ± 11.2 | Kp at 12 h [1, 10]: 29 ± 8.78 | Kp at 24 h [1, 10]: 40.3 ± 10.3 | AUC ([1]; human, plasma, AUC0-24 based on mean concentration at each BAL sampling time, read-out: Plasma AUCmean): 11700 ng·h/mL | AUC ([1]; human, plasma, AUC0-24 based on median concentration at each BAL sampling time, read-out: Plasma AUCmedian): 11800 ng·h/mL | concentration at 0.5 h [1, 11]: 1800 ± 130 ng/mL | concentration at 1 h [1, 11]: 890 ± 190 ng/mL | concentration at 2 h [1, 11]: 930 ± 330 ng/mL | concentration at 4 h [1, 11]: 590 ± 150 ng/mL | concentration at 8 h [1, 11]: 560 ± 120 ng/mL | concentration at 12 h [1, 11]: 420 ± 70 ng/mL | concentration at 24 h [1, 11]: 270 ± 50 ng/mL | Vd ([1]; human, plasma, after the fifth 100 mg iv dose, read-out: volume of distribution, mean ± SD): 165 ± 58 L | efficacy in mouse model of lower respiratory tract infection (Streptococcus pneumoniae [2]): effective | efficacy in mouse model of lower respiratory tract infection (Haemophilus influenzae): effective | between-subject variability in systemic exposure (CV) for Cmax and AUC ([3]; Treatment D): 42.6-44.4% | between-subject variability in systemic exposure (CV) for Cmax and AUC ([3]; Treatments A, B and C): 22.4-29.2% | Clinical Success n (%) (Streptococcus pneumoniae [4]; Streptococcus pneumoniae MDRSP, N1 = 7 (Compound 1), 6 (Moxifloxacin)): 7 (100.0) n (%) | Clinical Success n (%) (Streptococcus pneumoniae [4]; Streptococcus pneumoniae Macrolide Resistant, N1 = 10 (Compound 1), 5 (Moxifloxacin)): 10 (100.0) n (%) | Clinical Success n (%) (Streptococcus pneumoniae [4]; Streptococcus pneumoniae PSSP, N1 = 26 (Compound 1), 22 (Moxifloxacin)): 23 (88.5) n (%) | Clinical Success n (%) (Streptococcus pneumoniae [4]; baseline pathogen Streptococcus pneumoniae, N1 = 43 (Compound 1), 34 (Moxifloxacin)): 37 (86.0) n (%) | Clinical Success n (%) (Legionella pneumophila): 35 (94.6) n (%) | Clinical Success n (%) (Mycoplasma pneumoniae): 66 (94.3) n (%) | absolute bioavailability [5]: 35% | exposure (dose-normalized AUC0-24) as % of that predicted if perfectly dose-proportional ([6]; Day 1): 76% | exposure (dose-normalized AUC0-24) as % of that predicted if perfectly dose-proportional ([6]; Day 5): 88% | Cmax/Dose Geometric LS Means ([6]; Day 1, 300 mg): 2.09 ng/mL/mg | Cmax/Dose Geometric LS Means ([6]; Day 1, 450 mg): 1.81 ng/mL/mg | Cmax/Dose Geometric LS Means ([6]; Day 1, 600 mg): 1.54 ng/mL/mg | Cmax/Dose Geometric LS Means ([6]; Day 5, 300 mg): 2.62 ng/mL/mg | Cmax/Dose Geometric LS Means ([6]; Day 5, 450 mg): 2.32 ng/mL/mg | Cmax/Dose Geometric LS Means ([6]; Day 5, 600 mg): 2.11 ng/mL/mg | systemic exposure on Day 5 higher than on Day 1 ([6]; all tested dose levels): ~50% | AUC(0-t) ([6]; 300 mg): 9270 ng·h/mL | AUC(0-t) ([6]; 450 mg): 8980 ng·h/mL
